In PubChem BioAssay (NCI):
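In this assay, cells in 96-well plates receive the compound at five concentrations for 48 hours. Endpoints are linearly interpolated between the surrounding concentrations. TGI marks complete inhibition of growth.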

What was measured:
Experiment in all cases: NCI tumour cell line growth inhibition, 48 h
NCI-H460 lung = system: NCI-H460 lung
OVCAR-4 ovarian = system: OVCAR-4 ovarian
NCI/ADR-RES ovarian = system: NCI/ADR-RES ovarian
MALME-3M melanoma = system: MALME-3M melanoma
RPMI-8226 leukemia = system: RPMI-8226 leukemia
CAKI-1 renal = system: CAKI-1 renal
SNB-75 CNS = system: SNB-75 CNS
CCRF-CEM leukemia = system: CCRF-CEM leukemia
MCF7 breast = system: MCF7 breast
SN12C renal = system: SN12C renal
SK-MEL-28 melanoma = system: SK-MEL-28 melanoma
M19-MEL melanoma = system: M19-MEL melanoma
HOP-18 NSCLC = system: HOP-18 NSCLC
HT29 colon = system: HT29 colon
KM20L2 colon = system: KM20L2 colon
SF-539 CNS = system: SF-539 CNS
NCI-H522 lung = system: NCI-H522 lung
SNB-19 CNS = system: SNB-19 CNS
SNB-78 CNS = system: SNB-78 CNS
OVCAR-3 ovarian = system: OVCAR-3 ovarian
SK-MEL-2 melanoma = system: SK-MEL-2 melanoma
XF 498 CNS = system: XF 498 CNS
A549 NSCLC = system: A549 NSCLC
SN12K1 renal = system: SN12K1 renal
HCT-15 colon = system: HCT-15 colon
COLO 205 colon = system: COLO 205 colon
SW-620 colon = system: SW-620 colon
K-562 leukemia = system: K-562 leukemia
SF-295 CNS = system: SF-295 CNS
DMS 114 small cell lung = system: DMS 114 small cell lung
NCI-H226 lung = system: NCI-H226 lung
HOP-62 NSCLC = system: HOP-62 NSCLC
UACC-257 melanoma = system: UACC-257 melanoma
MOLT-4 leukemia = system: MOLT-4 leukemia
EKVX NSCLC = system: EKVX NSCLC
OVCAR-8 ovarian = system: OVCAR-8 ovarian
NCI-H23 lung = system: NCI-H23 lung
OVCAR-5 ovarian = system: OVCAR-5 ovarian
HCT-116 colon = system: HCT-116 colon
RXF 393 renal = system: RXF 393 renal
UO-31 renal = system: UO-31 renal
LOX IMVI melanoma = system: LOX IMVI melanoma
SK-OV-3 ovarian = system: SK-OV-3 ovarian
HOP-92 NSCLC = system: HOP-92 NSCLC
DLD-1 colon = system: DLD-1 colon
A498 renal = system: A498 renal
UACC-62 melanoma = system: UACC-62 melanoma
U251 CNS = system: U251 CNS
HL-60(TB) leukemia = system: HL-60(TB) leukemia
P388/ADR leukemia = system: P388/ADR leukemia
P388 leukemia = system: P388 leukemia
SK-MEL-5 melanoma = system: SK-MEL-5 melanoma
SF-268 CNS = system: SF-268 CNS
HCC-2998 colon = system: HCC-2998 colon
DMS 273 small cell lung = system: DMS 273 small cell lung
IGROV1 ovarian = system: IGROV1 ovarian
KM12 colon = system: KM12 colon

O=C1C(=O)c2cc([N+](=O)[O-])ccc2-c2ccc([N+](=O)[O-])cc21
TGI (NCI-H460 lung): 2650 nM
TGI (OVCAR-4 ovarian): 951 nM
TGI (NCI/ADR-RES ovarian): 1030 nM
TGI (MALME-3M melanoma): 3840 nM
TGI (RPMI-8226 leukemia): 1350 nM
TGI (CAKI-1 renal): 2140 nM
TGI (SNB-75 CNS): 5200 nM
TGI (CCRF-CEM leukemia): 1670 nM
TGI (MCF7 breast): 2610 nM
TGI (SN12C renal): 2290 nM
TGI (SK-MEL-28 melanoma): 4210 nM
TGI (M19-MEL melanoma): 789 nM
TGI (HOP-18 NSCLC): 8890 nM
TGI (HT29 colon): 22700 nM
TGI (KM20L2 colon): 21700 nM
TGI (SF-539 CNS): 1830 nM
TGI (NCI-H522 lung): 3000 nM
TGI (SNB-19 CNS): 4650 nM
TGI (SNB-78 CNS): 2660 nM
TGI (OVCAR-3 ovarian): 662 nM
TGI (SK-MEL-2 melanoma): 4160 nM
TGI (XF 498 CNS): 2640 nM
TGI (A549 NSCLC): 5970 nM
TGI (SN12K1 renal): 964 nM
TGI (HCT-15 colon): 3020 nM
TGI (COLO 205 colon): 7750 nM
TGI (SW-620 colon): 1560 nM
TGI (K-562 leukemia): 2010 nM
TGI (SF-295 CNS): 3530 nM
TGI (DMS 114 small cell lung): 908 nM
TGI (NCI-H226 lung): 4090 nM
TGI (HOP-62 NSCLC): 5870 nM
TGI (UACC-257 melanoma): 3190 nM
TGI (MOLT-4 leukemia): 1150 nM
TGI (EKVX NSCLC): 3940 nM
TGI (OVCAR-8 ovarian): 1270 nM
TGI (NCI-H23 lung): 2770 nM
TGI (OVCAR-5 ovarian): 6400 nM
TGI (HCT-116 colon): 885 nM
TGI (RXF 393 renal): 892 nM
TGI (UO-31 renal): 4440 nM
TGI (LOX IMVI melanoma): 3820 nM
TGI (SK-OV-3 ovarian): 5310 nM
TGI (HOP-92 NSCLC): 1640 nM
TGI (DLD-1 colon): 3950 nM
TGI (A498 renal): 3790 nM
TGI (UACC-62 melanoma): 1540 nM
TGI (U251 CNS): 2360 nM
TGI (HL-60(TB) leukemia): 2060 nM
TGI (P388/ADR leukemia): 2540 nM
TGI (P388 leukemia): 520 nM
TGI (SK-MEL-5 melanoma): 3670 nM
TGI (SF-268 CNS): 1930 nM
TGI (HCC-2998 colon): 5410 nM
TGI (DMS 273 small cell lung): 1830 nM
TGI (IGROV1 ovarian): 2290 nM
TGI (KM12 colon): 2660 nM
